From patent US12318448B2, “Use of TLR agonist and anti-CD47 agent to enhance phagocytosis of cancer cells” (The Board of Trustees of the Leland Stanford Junior …, priority 2015, dated 2025)

Experiments:
calreticulin (CRT) [1] = assay: Cell surface exposure of CRT on macrophages (cell surface biotinylation, flow cytometry); assay type: cell-based, mouse; conditions: for cell surface CRT on macrophages, cell surface biotinylation assay: immunoblots, FIG. 3A; for cell surface exposure of CRT on macrophages, flow cytometry: TLR agonist treatment, FIG. 3B, 10B
Method: Flow cytometry Analysis. Flow cytometry analyses were performed using a BD LSRFortessa. For staining, 2.5×10^5-10^6 cells were incubated with indicated antibodies (1:50-1:200) in FACS buffer (PBS with 2% fetal bovine serum) on ice for 30 minutes. Cells were then washed with FACS buffer and subjected to FACS analyses. For staining of macrophages, cells were first treated with Fc receptor blockers or a high concentration of isotype IgG control (5-10 times of indicated antibodies) to block non-specific binding of antibodies caused by the interaction of Fc domain and Fc receptors on macrophages.
Cell surface biotinylation. […] Cells were incubated with NHS-SS-Biotin (0.5 mg/ml) for 1 hr in PBS (pH8.0), and then rinsed with quench buffer (20 mM Tris-HCl, 120 mM NaCl, pH7.4), 100 mM Glycine in PBS, and PBS. Cells were lysed in lysis buffer (20 mM Tris-HCl, pH7.4, 150 mM NaCl, 2 mM EDTA, supplemented with 1% Triton X-100, protease inhibitor cocktail and phosphatase inhibitor cocktail). Cell lysate was incubated with neutravidin agarose resin for 4 hr at 4° C., and the resin was washed using lysis buffer. Biotin-labeled proteins were eluted with lysis buffer containing 2% SDS and 100 mM DTT, and subjected to SDS-PAGE and immunoblotting. Intracellular protein GAPDH was used as a negative control to confirm that only cell surface proteins were labeled by NHS-SS-Biotin.

SW620 cells [2] = assay: FACS-based phagocytosis assay, mouse BMDMs with SW620 target cells; assay type: cell-based, human; conditions: for phagocytosis of tumor cells after treatment of macrophages with TLR agonist: SW620 (PBS-treated, Hu5F9-G4-treated or CD47KO), γc-/- or NSG mice, FIG. 6A-6B
Method: We performed phagocytosis assays by co-culturing mouse bone marrow-derived macrophages (BMDMs) and target human cancer cells to examine the efficacy of PrCR under different conditions. To induce phagocytosis, we blocked CD47 on a human colon cancer cell line (SW620) by either treating tumor cells with CD47 blocking antibodies or directly knocking it out.
(§1) Phagocytosis assay. FACS-based phagocytosis assays were performed to evaluate phagocytic abilities of macrophages. Macrophages were harvested after 6-8 days of differentiation and divided into FACS tubes or low-attachment 96-well plates, with 1-5×10^4 cells per well/tube. Target cells were added and mixed with macrophages, and incubated at 37° C. for 2 hrs with indicated conditions (antibody/drug treatment). For CD47 blockade, anti-CD47 (B6H12, BD Biosciences) or humanized anti-CD47 (Hu5F9-G4; provided by the CD47 disease team at Stanford University) antibodies were used. Cells were then incubated with PE cy7-conjugated anti-mouse F4/80 antibody to stain macrophages. After incubation, cells were washed with FACS buffer and resuspended with FACS buffer containing sytox blue to distinguish dead cells. Phagocytic index was examined by FACS analyses, and macrophages that phagocytosed target cells were F4/80+ and GFP+. Phagocytic index was calculated with the number of F4/80+GFP+ cells/divided by the number of F4/80+ cells. In each experiment, phagocytic indexes were normalized to the maximal indexes.
Alternatively, macrophages and target cells were mixed and cocultured in 24 well plates for 16-24 hrs with indicated conditions. Cells were collected from the plates by TrypLE and incubated with PE cy7-conjugated anti-mouse F4/80 antibody to stain for macrophages. After incubation, cells were washed with FACS buffer and resuspended with FACS buffer containing sytox blue and non-colored standard cells (293T cells were used as standard cells). Cells were then subjected to FACS analyses. Remaining target cells were normalized to standard cells (numbers of standard cells were known and equal in each sample) to evaluate the percentage of cells phagocytosed by macrophages during the incubation.

SW620 cells [3] = assay: Phagocytosis assay, human PBMC-derived macrophages with SW620 target cells; assay type: cell-based; conditions: SW620 Control IgG- or B6H12-treated; FIG. 10D
Method: The cells were examined by flow cytometry analyses. Remaining target cells were used to evaluate efficacy of phagocytosis, with less remaining target cells representing stronger phagocytosis. […] Error bars represent standard deviation (FIGS. 10A, 10C and 10D).
Human peripheral blood-derived macrophages were generated as previously described.
Phagocytosis assay. FACS-based phagocytosis assays were performed to evaluate phagocytic abilities of macrophages. […] Target cells were added and mixed with macrophages, and incubated at 37° C. for 2 hrs with indicated conditions (antibody/drug treatment). For CD47 blockade, anti-CD47 (B6H12, BD Biosciences) or humanized anti-CD47 (Hu5F9-G4; provided by the CD47 disease team at Stanford University) antibodies were used. Cells were then incubated with PE cy7-conjugated anti-mouse F4/80 antibody to stain macrophages. After incubation, cells were washed with FACS buffer and resuspended with FACS buffer containing sytox blue to distinguish dead cells. Phagocytic index was examined by FACS analyses, and macrophages that phagocytosed target cells were F4/80+ and GFP+. Phagocytic index was calculated with the number of F4/80+GFP+ cells/divided by the number of F4/80+ cells. In each experiment, phagocytic indexes were normalized to the maximal indexes.

Btk = target: T1, Btk (Mus musculus, UniProt P35991); assay: Immunoblot of Btk phosphorylation in macrophages; assay type: cell-based; conditions: treatment with TLR agonist, FIG. 2B
T1 construct: endogenous in cells; probably mouse bone-marrow-derived macrophages
T1 sequence (P35991 whole entry): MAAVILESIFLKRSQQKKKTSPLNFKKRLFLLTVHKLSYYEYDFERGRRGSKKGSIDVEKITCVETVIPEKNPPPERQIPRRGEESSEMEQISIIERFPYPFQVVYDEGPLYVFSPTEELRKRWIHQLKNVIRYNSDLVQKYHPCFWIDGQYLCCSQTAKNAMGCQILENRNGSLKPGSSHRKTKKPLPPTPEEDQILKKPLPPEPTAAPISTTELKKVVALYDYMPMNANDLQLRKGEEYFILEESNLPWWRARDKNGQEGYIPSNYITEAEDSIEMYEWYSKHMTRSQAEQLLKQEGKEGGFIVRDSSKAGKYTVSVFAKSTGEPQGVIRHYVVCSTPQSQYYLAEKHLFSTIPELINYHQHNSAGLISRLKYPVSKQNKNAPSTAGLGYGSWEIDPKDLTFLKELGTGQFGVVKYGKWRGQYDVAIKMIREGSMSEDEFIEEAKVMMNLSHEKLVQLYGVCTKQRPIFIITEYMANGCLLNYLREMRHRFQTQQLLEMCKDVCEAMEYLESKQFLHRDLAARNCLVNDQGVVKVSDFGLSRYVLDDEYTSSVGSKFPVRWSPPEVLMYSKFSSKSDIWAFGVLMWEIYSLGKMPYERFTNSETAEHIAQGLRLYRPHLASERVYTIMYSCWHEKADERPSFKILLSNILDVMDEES
Description: FIG. 2A-2D. […] Error bars represent standard deviation (FIGS. 2A, 2C and 2D).

calreticulin (CRT) [4] = assay: CRT phosphorylation in J774 cells expressing myc-CRT (immunoprecipitation, immunoblot); assay type: cell-based, mouse; conditions: myc-tagged CRT, FIG. 10E
Method: Immunoprecipitation. Calreticulin was immunoprecipitated from J774 cells expressing myc-CRT. J774 cells were plated 12 hrs before immunoprecipitation. Cells were treated with imiquimod (1 ug/ml) at indicated time points, and washed with pre-chilled PBS containing phosphatase inhibitors on ice. Cells were then lysed in lysis buffer (20 mM Tris-HCl, pH7.4, 150 mM NaCl, 2 mM EDTA, supplemented with 1% Triton X-100, protease inhibitor cocktail and phosphatase inhibitor cocktail). Cell lysate was incubated for 1 hr with GammaBind Plus Sepharose for preclearance and 4 hr with anti-myc antibodies at 4° C. GammaBind sepharose was added to cell lysate and incubated for 1 hr at 4° C. Beads were washed with lysis buffer. Proteins were eluted with lysis buffer containing 2% SDS and 100 mM DTT, and subjected to SDS-PAGE and immunoblotting. To detect phosphorylated CRT, the blot was incubated with biotin-labeled pT66 anti-p-Tyrosine antibody and HRP-conjugated streptavidin.

[5] = tested on: HL60, Raji, PC3, MDA-MB-231 cells; assay: Phagocytosis assay, mouse BMDMs with multiple hematopoietic and solid tumor cells; assay type: cell-based, human; conditions: macrophages treated with TLR3, 4 and 7 agonists; FIGS. 6A-C and 7A-D
Description: FIG. 7A-7D. Phagocytosis of HL60, Raji, PC-3, MDA-MB-231 is enhanced by TLR agonists. Phagocytosis assays showing TLR agonists enhanced phagocytosis of multiple human cancer cells, with different hematopoietic (HL60 and Raji) and solid tumor (PC3 and MDA-MB-231) cells (PBS- or Hu5F9-G4-treated) as target cells and BMDMs from NSG (HL60, Raji and PC3) or RAG2^−/−, γc^−/− (MDA-MB-231) mice. HL60: Promyelocytic leukemia; Raji: Burkitt's lymphoma; PC3: Prostate cancer; MDA-MB-231: Breast cancer. Error bars represent standard deviation (FIG. 7A-7D).
as §1

[6] = tested on: PC3 prostate cancer cells; assay: Flow cytometry of dissociated PC3 tumor specimens from treated NSG mice; assay type: in vivo, mouse; conditions: PC3 tumors in NSG mice; FIG. 8B
Method: Tumor engraftment and treatment. PC3 cells (human prostate cancer) were suspended in F-12K medium with 25% matrix matrigel, and injected subcutaneously on the back of 6-10 week NSG mice. Mice were treated with PBS or Hu5F9-G4 antibody by intraperitoneal injection 2 weeks after engraftment, and PBS or TLR agonists (20 μg of Poly (I:C) HMW and 20 μg of LPS) by intratumoral injection 7 weeks after engraftment when tumors reached 100 mm^3.
Tumor dissociation and FACS analyses. Tumor specimens were collected from the mice, minced to pieces smaller than 1 mm in diameter and dissociated in medium 199 with TM enzymes and DNAase at 37° C. until single-cell suspension was achieved. The cells were treated with ACK lysing buffer for lysis of red blood cells, washed twice with HBSS, filtered through 70 μm cell strainer and subjected to flow cytometry analyses. The cells were stained with anti-CD31 antibody, anti-Gr-1 antibody and sytox blue to exclude endothelial cells, neutrophils and dead cells, and with anti-F4/80 antibody for macrophages.

Molecule | cell surface CRT on macrophages, cell surface biotinylation assay (calreticulin (CRT) [1]) | cell surface exposure of CRT on macrophages, flow cytometry (calreticulin (CRT) [1]) | Btk phosphorylation in macrophages (Btk) | phagocytosis of tumor cells after treatment of macrophages with TLR agonist (SW620 cells [2]; BMDMs from RAG2-/-) | phagocytosis of multiple hematopoietic and solid tumor cells [5] | other results
C=CC(=O)N1CCC[C@@H](n2nc(-c3ccc(Oc4ccccc4)cc3)c3c(N)ncnc32)C1 [ibrutinib, 1-[(3R)-3-[4-amino-3-(4-phenoxyphenyl)pyrazolo[3,4-d]pyrimidin-1-yl]piperidin-1-yl]prop-2-en-1-one] | decreased | – | – | – | – | imiquimod-induced cell surface expression of CRT on macrophages with ibrutinib (calreticulin (CRT) [1]; imiquimod+ibrutinib, flow cytometry, FIG. 10B): reversed; basal level phagocytosis of cancer cells (resting macrophages) (SW620 cells [2]; Fc-dependent and -independent, 16 hr coculture, BMDMs from RAG2-/-, γc-/- mice, FIG. 10A): inhibitory effect; phagocytosis induced by TLR agonists, combined with inhibitor (SW620 cells [2]; SW620 (control or CD47KO), BMDMs from RAG2-/-, γc-/- mice, FIG. 2A): significantly attenuated; time to maximal inhibition of phagocytosis on blockade of Btk (SW620 cells [2]; SW620 CD47KO target cells, BMDMs from NSG mice, FIG. 2D): ≤ 1 h; phagocytosis of SW620 cells by human PBMC-derived macrophages (SW620 cells [3]): inhibited phagocytosis
CC(C)Cn1cnc2c(N)nc3ccccc3c21 [imiquimod, Imiquimod] | increased | Increased cell surface exposure | stimulated Btk to be phosphorylated | promoted phagocytosis | dramatically enhanced | cell surface exposure of CRT on macrophages, flow cytometry (calreticulin (CRT) [1]; listed as Imiquimod): increased cell surface expression; time of treatment to maximal level of CRT phosphorylation (calreticulin (CRT) [4]): 30 min; duration of Btk-activation for maximal phagocytic ability of macrophages (SW620 cells [2]; SW620 CD47KO target cells, BMDMs from NSG mice, FIG. 2C): 16 h
lipopolysaccharide [LPS] | – | Increased cell surface exposure | stimulated Btk to be phosphorylated | promoted phagocytosis | dramatically enhanced | phagocytic ability of macrophages (SW620 cells [2]; SW620 (PBS- or Hu5F9-G4-treated), BMDMs from NSG mice, flow cytometry plots, FIG. 6C): strongly enhanced
polyinosinic-polycytidylic acid-high molecular weight [Poly (I:C) HMW] | – | Increased cell surface exposure | stimulated Btk to be phosphorylated | promoted phagocytosis | dramatically enhanced | –
Hu5F9-G4: humanized anti-CD47 antibody provided by the CD47 disease team at Stanford University (antibody, chains of the INN, looked up, V domains shown) VH: QVQLVQSGAEVKKPGASVKVSCKASGYTFTNYNMHWVRQAPGQRLEWMGTIYPGNDDTSYNQKFKDRVTITADTSASTAYMELSSLRSEDTAVYYCARGGYRAMDYWGQGTLVTVSS VL: DIVMTQSPLSLPVTPGEPASISCRSSQSIVYSNGNTYLGWYLQKPGQSPQLLIYKVSNRFSGVPDRFSGSGSGTDFTLKISRVEAEDVGVYYCFQGSHVPYTFGQGTKLEIK | – | – | – | – | – | macrophages (a1+a2) in tumor specimens [6]: 46.26%; macrophages that had phagocytosed tumor cells a2 (GFP+F4/80+), ongoing phagocytosis [6]: 39.3%; tumor cells a4 (GFP+F4/80-) in tumor specimens [6]: 40%
B6H12: anti-CD47 antibody (B6H12, BD Biosciences) (antibody, V domains shown) VH: EVQLVESGGDLVKPGGSLKLSCAASGFTFSGYGMSWVRQTPDKRLEWVATITSGGTYTYYPDSVKGRFTISRDNAKNTLYLQIDSLKSEDTAIYFCARSLAGNAMDYWGQGTSVTVSS VL: DIVMTQSPATLSVTPGDRVSLSCRASQTISDYLHWYQQKSHESPRLLIKFASQSISGIPSRFSGSGSGSDFTLSINSVEPEDVGVYYCQNGHGFPRTFGGGTKLEIK | – | – | – | – | – | phagocytosis of SW620 cells on blockade of CD47 (SW620 cells [2]; BMDMs from RAG2-/-, γc-/- mice, FIG. 1A): induced phagocytosis
